Measured values reported in US4105651A (The United States of America as represented by the …, priority 1976, dated 1978).
Like-named read-outs stand apart in the source and are kept apart here.

Test system: opiate receptor sites
Text: The tests which were made in the laboratory were of the myenteric plexus-longitudinal muscle of the guinea pig ileum and the vas deferens of the mouse. In the whole animal the rates of onset and recovery are directly related to lipid solubility which facilitates drug movement to and from the brain.

CC(C)C[C@H](NC(=O)[C@H](Cc1ccccc1)NC(=O)CNC(=O)CNC(=O)[C@@H](N)Cc1ccc(O)cc1)C(=O)O [leucine-enkephalin, H-Tyr-Gly-Gly-Phe-Leu-OH]
agonist activity: inhibition of electrically evoked contractions (guinea pig ileum): dose-related inhibition
agonist activity: inhibition of electrically evoked contractions (mouse vas deferens): dose-related inhibition

CSCC[C@H](NC(=O)[C@H](Cc1ccccc1)NC(=O)CNC(=O)CNC(=O)[C@@H](N)Cc1ccc(O)cc1)C(=O)O [methionine-enkephalin, H-Tyr-Gly-Gly-Phe-Met-OH]
agonist activity: inhibition of electrically evoked contractions (guinea pig ileum): dose-related inhibition
agonist activity: inhibition of electrically evoked contractions (mouse vas deferens): dose-related inhibition
